This note sets out measurements from patent US20210115104A1, “AMYLIN ANALOGUES” (Zealand Pharma A/S, priority 2015, published 2021).

Molecules are shown by their SMILES. *1 amine or outer side, *2 acyl side, *3 side chain or, on linkers, in order; H or OH if unused. Where a SMILES comes first, the peptide text is derived from it. Bridges are numbered along the chain shown (N, C = ends). [ ]: non-standard residue; d: D form. The star is where a group is joined. C20 diacid = O=C(O)CCCCCCCCCCCCCCCCCCC(=O)*; γGlu = O=C(O)[C@H](CCC(=O)[*:2])N[*:1]; Hyp = O=C(O)[C@@H]1C[C@@H](O)CN1; NMeI = CC[C@H](C)[C@H](NC)C(=O)O; Aad = N[C@@H](CCCC(=O)O)C(=O)O; Sar = CNCC(=O)O

For one test, the system named is Sprague Dawley rats. Nature of the test: Oral glucose tolerance test (OGTT) in rats. It counts as in vivo, rat. The conditions noted are these: fasted rats, 30 nmol/kg sc 16 hours before oral glucose bolus 2 g/kg. The procedure: Male Sprague Dawley rats [Crl:CD(SD), weight range 260-280 g upon arrival] were housed in groups of 2 (n=2) or 3 (n=3). The animals were maintained on a 12 h/12 h light/dark cycle. Animals had access ad libitum to a standard chow diet and tap water (domestic quality tap water) during the initial one week acclimatization period.
Fasted rats (fasted for 7 hours) were employed in the test. Rats had previously been randomized into two groups, designated test group and control group, respectively. The total number of animals per group was 10 (n=10).
A single subcutaneous injection of either vehicle (control group; vehicle: 50 mM histidine buffer, pH 7, with 200 mM mannitol) or Compound 7 in vehicle [test group; dose 30 nmol/kg body weight (2 ml/kg)] was subsequently administered to each animal. All rats then received an oral glucose bolus (2 g/kg) 16 hours after vehicle or compound administration. Blood glucose levels in tail blood samples taken 20 min. before glucose administration (time zero, baseline) and then 15 min., 30 min., 60 min., 90 min., 120 min. and 180 min after glucose administration were determined using a glucometer (GlucoSmart Swing™; MSP Bodmann GmbH, Germany).
The data are presented as mean±S.E.M. The two-sided unpaired Student t-test was used for statistical comparison of the test group and the control group.

Test [1] deals with T1, human calcitonin receptor (hCTR2) (Homo sapiens, UniProt P30988).
T1 construct: expressed in transfected cells
T1 sequence (P30988 25-474): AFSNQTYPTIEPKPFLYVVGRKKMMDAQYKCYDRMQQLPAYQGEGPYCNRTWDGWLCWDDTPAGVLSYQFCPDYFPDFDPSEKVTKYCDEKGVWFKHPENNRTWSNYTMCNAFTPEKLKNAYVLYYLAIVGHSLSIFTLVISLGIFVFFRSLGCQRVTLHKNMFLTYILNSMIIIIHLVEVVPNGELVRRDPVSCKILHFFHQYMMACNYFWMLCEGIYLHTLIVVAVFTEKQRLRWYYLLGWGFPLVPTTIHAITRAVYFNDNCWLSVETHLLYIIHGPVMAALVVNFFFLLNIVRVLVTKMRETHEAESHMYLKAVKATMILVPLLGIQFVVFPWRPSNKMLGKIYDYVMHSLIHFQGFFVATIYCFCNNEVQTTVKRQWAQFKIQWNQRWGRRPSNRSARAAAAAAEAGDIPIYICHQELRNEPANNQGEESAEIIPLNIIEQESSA
Nature of the test: hCTR2 cAMP assay (AlphaScreen) in COS7 cells. The class given is cell-based. The conditions noted are these: cAMP induction, COS7 cells expressing hCTR2; Table 1; read-out: hCTR2 EC50. The essentials: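 cAMP induction, read by AlphaScreen after lysis, gives EC50 values via 4PL curve fitting. Peptides were applied at rising concentrations for 15 min at 37 °C, with IBMX and 0.1% casein in HEPES-buffered Tyrode pH 7.4, to COS7 cells (no endogenous RAMPs) stably expressing human CTR2.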

The target in test [2] is T2, human amylin receptor 3 (hAMYR3), hCTR2 co-expressed with hRAMP3 (Homo sapiens, UniProt O60896+P30988).
T2 construct: expressed in transfected cells
T2 sequence (P30988 25-474): T1 sequence (P30988 25-474)
T2 sequence (O60896 24-148 partner): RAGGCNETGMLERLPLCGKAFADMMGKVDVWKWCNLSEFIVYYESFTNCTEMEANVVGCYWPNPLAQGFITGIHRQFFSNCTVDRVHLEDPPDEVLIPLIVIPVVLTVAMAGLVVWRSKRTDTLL
Nature of the test: hAMYR3 cAMP assay (AlphaScreen) in COS7 cells. Particulars: cAMP induction, COS7 cells expressing hAMYR3; Table 1; read-out: hAMYR3 EC50. The class given is cell-based. The essentials:
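EC50 values derive from 4PL curve fits of cAMP (AlphaScreen) in lysates of RAMP-naive COS7 cells stably carrying hCTR2 plus hRAMP3. Peptide dilution series were applied for 15 min at 37 °C in pH 7.4 Tyrode buffer containing 100 µM IBMX and 0.1% casein.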
On the technique in general: cAMP levels reflect the balance of adenylyl cyclase and phosphodiesterase activity.

A word on the EC50: it is the concentration giving half of the maximal effect. For the molecule `CC[C@H](C)[C@@H](C(=O)N[C@@H](CC(C)C)C(=O)N[C@@H](CO)C(=O)N[C@@H](CO)C(=O)N[C@H](C(=O)N[C@@H](CCC(=O)O)C(=O)N[C@H](C(=O)NCC(=O)N[C@@H](CO)C(=O)N[C@@H](CC(N)=O)C(=O)N[C@H](C(=O)N1C[C@H](O)C[C@H]1C(N)=O)[C@@H](C)O)C(C)C)[C@@H](C)O)N(C)C(=O)[C@H](C)NC(=O)CN(C)C(=O)[C@H](Cc1ccccc1)NC(=O)[C@H](CO)NC(=O)[C@H](CO)NC(=O)[C@H](CCCNC(=N)N)NC(=O)[C@H](CCC(N)=O)NC(=O)[C@H](CC(C)C)NC(=O)[C@H](Cc1ccccc1)NC(=O)[C@H](Cc1c[nH]cn1)NC(=O)[C@H](C)NC(=O)[C@H](CC(C)C)NC(=O)[C@H](CCCNC(=N)N)NC(=O)[C@H](CCC(=O)O)NC(=O)[C@@H](NC(=O)[C@H](C)NC(=O)[C@@H]1CSSC[C@H](NC(=O)[C@H](CCCNC(=N)N)NC(=O)CC[C@H](NC(=O)CCCCCCCCCCCCCCCCCCC(=O)O)C(=O)O)C(=O)NCC(=O)N[C@@H]([C@@H](C)O)C(=O)N[C@@H](C)C(=O)N[C@@H]([C@@H](C)O)C(=O)N1)[C@@H](C)O` [Compound 7, [19CD]-isoGlu-R-C( )-GTAT-C( )-ATERLAHFLQRSSF-Gly(Me)-A-Ile(Me)-LSSTEVGSNT-Hyp-NH2] ({C20 diacid-γGlu}-RCGTATCATERLAHFLQRSSF[Sar]A[NMeI]LSSTEVGSNT[Hyp]-NH2; disulfide 2-7), the Glucose AUC, t = 15-180 min.; mean ± S.E.M. with Sprague Dawley rats worked out at 122 ± 29 mmol·min/L. Also, the EC50 in test [1] was determined as 0.087 nM.

Take `CC[C@H](C)[C@@H](C(=O)N[C@@H](CC(C)C)C(=O)N[C@@H](CO)C(=O)N[C@@H](CO)C(=O)N[C@H](C(=O)N[C@@H](CCC(=O)O)C(=O)N[C@H](C(=O)NCC(=O)N[C@@H](CO)C(=O)N[C@@H](CC(N)=O)C(=O)N[C@H](C(=O)N1C[C@H](O)C[C@H]1C(N)=O)[C@@H](C)O)C(C)C)[C@@H](C)O)N(C)C(=O)[C@H](C)NC(=O)CN(C)C(=O)[C@H](Cc1ccccc1)NC(=O)[C@H](CO)NC(=O)[C@H](CO)NC(=O)[C@H](CCCNC(=N)N)NC(=O)[C@H](CCC(N)=O)NC(=O)[C@H](CC(C)C)NC(=O)[C@H](Cc1ccccc1)NC(=O)[C@H](CC(=O)O)NC(=O)[C@H](C)NC(=O)[C@H](CC(C)C)NC(=O)[C@H](CCCNC(=N)N)NC(=O)[C@H](CCC(N)=O)NC(=O)[C@@H](NC(=O)[C@H](C)NC(=O)[C@@H]1CSSC[C@H](NC(=O)[C@H](CCCNC(=N)N)NC(=O)CC[C@H](NC(=O)CCCCCCCCCCCCCCCCCCC(=O)O)C(=O)O)C(=O)N[C@@H](CC(N)=O)C(=O)N[C@@H]([C@@H](C)O)C(=O)N[C@@H](C)C(=O)N[C@@H]([C@@H](C)O)C(=O)N1)[C@@H](C)O` [Compound 49, [19CD]-isoGlu-R-C( )-NTAT-C( )-ATQRLADFLQRSSF-Gly(Me)-A-Ile(Me)-LSSTEVGSNT-Hyp-NH2] ({C20 diacid-γGlu}-RCNTATCATQRLADFLQRSSF[Sar]A[NMeI]LSSTEVGSNT[Hyp]-NH2; disulfide 2-7): the values for the 50% effective concentration (EC50) in test [2] and in test [1] were 0.15 nM and 0.06 nM, respectively.

On to `CC[C@H](C)[C@@H](C(=O)N[C@@H](CC(C)C)C(=O)N[C@@H](CO)C(=O)N[C@@H](CO)C(=O)N[C@H](C(=O)N[C@@H](CCC(=O)O)C(=O)N[C@H](C(=O)NCC(=O)N[C@@H](CO)C(=O)N[C@@H](CC(N)=O)C(=O)N[C@H](C(=O)N1C[C@H](O)C[C@H]1C(N)=O)[C@@H](C)O)C(C)C)[C@@H](C)O)N(C)C(=O)[C@H](C)NC(=O)CN(C)C(=O)[C@H](Cc1ccccc1)NC(=O)[C@H](CO)NC(=O)[C@H](CO)NC(=O)[C@H](CCCNC(=N)N)NC(=O)[C@H](CCC(N)=O)NC(=O)[C@H](CC(C)C)NC(=O)[C@H](Cc1ccccc1)NC(=O)[C@H](CCCC(=O)O)NC(=O)[C@H](C)NC(=O)[C@H](CC(C)C)NC(=O)[C@H](CCCNC(=N)N)NC(=O)[C@H](CCC(=O)O)NC(=O)[C@@H](NC(=O)[C@H](C)NC(=O)[C@@H]1CSSC[C@H](NC(=O)[C@H](CCCNC(=N)N)NC(=O)CC[C@H](NC(=O)CCCCCCCCCCCCCCCCCCC(=O)O)C(=O)O)C(=O)NCC(=O)N[C@@H]([C@@H](C)O)C(=O)N[C@@H](C)C(=O)N[C@@H]([C@@H](C)O)C(=O)N1)[C@@H](C)O` [Compound 55, [19CD]-isoGlu-R-C( )-GTAT-C( )-ATERLA-Aad-FLQRSSF-Gly(Me)-A-Ile(Me)-LSSTEVGSNT-Hyp-NH2] ({C20 diacid-γGlu}-RCGTATCATERLA[Aad]FLQRSSF[Sar]A[NMeI]LSSTEVGSNT[Hyp]-NH2; disulfide 2-7), for which the EC50 is 0.08 nM in test [2] and 0.11 nM in test [1].

For the molecule `CC[C@H](C)[C@@H](C(=O)N[C@@H](CC(C)C)C(=O)N[C@@H](CO)C(=O)N[C@@H](CO)C(=O)N[C@H](C(=O)N[C@@H](CCC(=O)O)C(=O)N[C@H](C(=O)NCC(=O)N[C@@H](CO)C(=O)N[C@@H](CC(N)=O)C(=O)N[C@H](C(=O)N1C[C@H](O)C[C@H]1C(N)=O)[C@@H](C)O)C(C)C)[C@@H](C)O)N(C)C(=O)[C@H](C)NC(=O)CN(C)C(=O)[C@H](Cc1ccccc1)NC(=O)[C@H](CO)NC(=O)[C@H](CO)NC(=O)[C@H](CCCNC(=N)N)NC(=O)[C@H](CCC(N)=O)NC(=O)[C@H](CC(C)C)NC(=O)[C@H](Cc1ccccc1)NC(=O)[C@H](Cc1c[nH]cn1)NC(=O)[C@H](C)NC(=O)[C@H](CC(C)C)NC(=O)[C@H](CCCNC(=N)N)NC(=O)[C@H](CCC(=O)O)NC(=O)[C@@H](NC(=O)[C@H](C)NC(=O)[C@@H]1CSSC[C@H](NC(=O)[C@H](CCCNC(=N)N)NC(=O)CC[C@H](NC(=O)CCCCCCCCCCCCCCCCCCC(=O)O)C(=O)O)C(=O)N[C@@H](CCC(N)=O)C(=O)N[C@@H]([C@@H](C)O)C(=O)N[C@@H](C)C(=O)N[C@@H]([C@@H](C)O)C(=O)N1)[C@@H](C)O` [Compound 57, [19CD]-isoGlu-R-C( )-QTAT-C( )-ATERLAHFLQRSSF-Gly(Me)-A-Ile(Me)-LSSTEVGSNT-Hyp-NH2] ({C20 diacid-γGlu}-RCQTATCATERLAHFLQRSSF[Sar]A[NMeI]LSSTEVGSNT[Hyp]-NH2; disulfide 2-7), the figures for the EC50 in test [2] and in test [1] were 0.11 nM and 0.08 nM, respectively.

On to `CC[C@H](C)[C@@H](C(=O)N[C@@H](CC(C)C)C(=O)N[C@@H](CO)C(=O)N[C@@H](CO)C(=O)N[C@H](C(=O)N[C@@H](CCC(=O)O)C(=O)N[C@H](C(=O)NCC(=O)N[C@@H](CO)C(=O)NCC(=O)N[C@H](C(=O)N1C[C@H](O)C[C@H]1C(N)=O)[C@@H](C)O)C(C)C)[C@@H](C)O)N(C)C(=O)[C@H](C)NC(=O)CN(C)C(=O)[C@H](Cc1ccccc1)NC(=O)[C@H](CO)NC(=O)[C@H](CO)NC(=O)[C@H](CCCNC(=N)N)NC(=O)[C@H](CCC(N)=O)NC(=O)[C@H](CC(C)C)NC(=O)[C@H](Cc1ccccc1)NC(=O)[C@H](Cc1c[nH]cn1)NC(=O)[C@H](C)NC(=O)[C@H](CC(C)C)NC(=O)[C@H](CCCNC(=N)N)NC(=O)[C@H](CCC(N)=O)NC(=O)[C@@H](NC(=O)[C@H](C)NC(=O)[C@@H]1CSSC[C@H](NC(=O)[C@H](CCCNC(=N)N)NC(=O)CC[C@H](NC(=O)CCCCCCCCCCCCCCCCCCC(=O)O)C(=O)O)C(=O)N[C@@H](CC(N)=O)C(=O)N[C@@H]([C@@H](C)O)C(=O)N[C@@H](C)C(=O)N[C@@H]([C@@H](C)O)C(=O)N1)[C@@H](C)O` [Compound 71, [19CD]-isoGlu-R-C( )-NTAT-C( )-ATQRLAHFLQRSSF-Gly(Me)-A-Ile(Me)-LSSTEVGSGT-Hyp-NH2] ({C20 diacid-γGlu}-RCNTATCATQRLAHFLQRSSF[Sar]A[NMeI]LSSTEVGSGT[Hyp]-NH2; disulfide 2-7), for which the half-maximal effective concentration (EC50) came to 0.18 nM in test [2] and 0.11 nM in test [1].
